According to patent publication US10780074B2, “Compounds and uses thereof” (Sunovion Pharmaceuticals Inc., priority 2017, dated 2020):
Structures can show the parent of a compound that is named as a salt.

Test system: behaviors of compound-treated mice
Assay: Neuropharmacological Assay (SmartCube)
Format: in vivo
Details: for minimal effective dose: Mus musculus, ip, 0.25 h, dose having 50% or more total activity in SmartCube, i.p., read-out: MED (minimal effective dose); for AD: ADHD (probability that activity matches class) / AG: analgesic (probability that activity matches class) / AX: anxiolytic (probability that activity matches class) / CE: cognitive enhancer (probability that activity matches class) / DP: anti-depressant (probability that activity matches class) / MS: mood stabilizer (probability that activity matches class) / PS: anti-psychotic (probability that activity matches class) / SD: sedative hypnotic (probability that activity matches class) / UN: uncharacterized CNS activity (probability that activity matches class): i.p. 15 min before behavioral test, most efficacious dose(s) of 3 doses
Description: Neuropharmacological Assay (SmartCube™)
Neurosci. 2011 Sep. 9; 5:103 (doi: 10.3389/fnins.2011.00103) (“Roberds”). As reported in Roberds, because psychiatric diseases generally result from disorders of cell-cell communication or circuitry, intact systems are useful in detecting improvement in disease-relevant endpoints. These endpoints are typically behavioral in nature, often requiring human observation and interpretation. To facilitate testing of multiple compounds for behavioral effects relevant to psychiatric disease, PsychoGenics, Inc. (Tarrytown, N.Y., “PGI”) developed SmartCube™, an automated system in which behaviors of compound-treated mice are captured by digital video and analyzed with computer algorithms. (D. Brunner et al., Drug Discov. Today 2002, 7:S107-S112). PGI Analytical Systems uses data from SmartCube™ to compare the behavioral signature of a test compound to a database of behavioral signatures obtained using a large set of diverse reference compounds. (The composition of the database as well as validation of the method is further described in Roberds). In this way, the neuropharmacological effects of a test compound can be predicted by similarity to major classes of compounds, such as antipsychotics, anxiolytics and antidepressants.
The SmartCube™ system produces an activity signature indicating the probability that the activity of the test compound at the administered dose matches a given class of neuropharmacological agents. (See, e.g., Roberds, FIGS. 2 and 3). The test compound is simultaneously compared against multiple classes of agents; thus, a separate probability is generated for each behavioral effect measured (e.g., anxiolytic activity, analgesic activity, etc.). In the table below, these probabilities are reported for each behavioral effect measured as follows:
Provided compounds were dissolved in a mixture of Pharmasolve™ (N-methyl-2-pyrrolidone), polyethylene glycol and propylene glycol, and were injected i.p. 15 min. before the behavioral test. For each compound, injections were administered at 3 different doses. For each behavioral effect measured, results for the most efficacious dose(s) are presented. In the table below, DP: anti-depressant; AX: anxiolytic; SD: sedative hypnotic; PS: anti-psychotic; MS: mood stabilizer; AD: ADHD; CE: cognitive enhancer; AG: analgesic; UN: uncharacterized CNS activity.
The potency of many of the compounds in the table was also determined in the SmartCube™ system. Test compounds were routinely examined at dose levels of 0.3, 1, 3 10 and 30 mg per kg (mpk), although the dose range was increased or decreased if necessary to obtain a full dose response curve. A compound's minimal effective dose (MED) is a measure of the compounds potency. The MED was defined as the dose (in mpk) having 50% or more total activity in SmartCube.

## CCNC[C@@H]1OCCc2c(-c3ccncc3)cccc21 (single isomer, unassigned) [Compound 66, hydrochloride salt]
  minimal effective dose: 10 to 30 mg/kg
  AD: ADHD (probability that activity matches class): + (LOQ ≤ + <5%)
  AG: analgesic (probability that activity matches class): + (LOQ ≤ + <5%)
  AX: anxiolytic (probability that activity matches class): ++ (5% ≤ ++ <25%)
  CE: cognitive enhancer (probability that activity matches class): + (LOQ ≤ + <5%)
  DP: anti-depressant (probability that activity matches class): ++ (5% ≤ ++ <25%)
  MS: mood stabilizer (probability that activity matches class): + (LOQ ≤ + <5%)
  PS: anti-psychotic (probability that activity matches class): + (LOQ ≤ + <5%)
  SD: sedative hypnotic (probability that activity matches class): + (LOQ ≤ + <5%)
  UN: uncharacterized CNS activity (probability that activity matches class): + (LOQ ≤ + <5%)

## NC[C@@H]1OCc2c(-c3ccncc3)cccc21 (single isomer, unassigned) [Compound 37, hydrochloride salt]
  minimal effective dose: 10 to 30 mg/kg
  AD: ADHD (probability that activity matches class): ++ (5% ≤ ++ <25%)
  AG: analgesic (probability that activity matches class): ++ (5% ≤ ++ <25%)
  AX: anxiolytic (probability that activity matches class): ++ (5% ≤ ++ <25%)
  CE: cognitive enhancer (probability that activity matches class): + (LOQ ≤ + <5%)
  DP: anti-depressant (probability that activity matches class): +++ (25% ≤ +++ <50%)
  MS: mood stabilizer (probability that activity matches class): + (LOQ ≤ + <5%)
  PS: anti-psychotic (probability that activity matches class): + (LOQ ≤ + <5%)
  SD: sedative hypnotic (probability that activity matches class): + (LOQ ≤ + <5%)
  UN: uncharacterized CNS activity (probability that activity matches class): + (LOQ ≤ + <5%)

## NCC1OCCc2c(-c3cccnn3)cccc21 (centres unmarked) [Compound 62, (5-(Pyridazin-3-yl)isochroman-1-yl)methanaminehydrochloride salt]
  minimal effective dose: > 30 mg/kg
  AD: ADHD (probability that activity matches class): + (LOQ ≤ + <5%)
  AG: analgesic (probability that activity matches class): + (LOQ ≤ + <5%)
  AX: anxiolytic (probability that activity matches class): ++ (5% ≤ ++ <25%)
  CE: cognitive enhancer (probability that activity matches class): + (LOQ ≤ + <5%)
  DP: anti-depressant (probability that activity matches class): ++ (5% ≤ ++ <25%)
  MS: mood stabilizer (probability that activity matches class): + (LOQ ≤ + <5%)
  PS: anti-psychotic (probability that activity matches class): + (LOQ ≤ + <5%)
  SD: sedative hypnotic (probability that activity matches class): + (LOQ ≤ + <5%)
  UN: uncharacterized CNS activity (probability that activity matches class): + (LOQ ≤ + <5%)

## NC[C@@H]1OCCc2c(-c3cnoc3)cccc21 (single isomer, unassigned) [Compound 86, hydrochloride salt]
  minimal effective dose: 3 to 10 mg/kg
  AD: ADHD (probability that activity matches class): + (LOQ ≤ + <5%)
  AG: analgesic (probability that activity matches class): + (LOQ ≤ + <5%)
  AX: anxiolytic (probability that activity matches class): ++ (5% ≤ ++ <25%)
  CE: cognitive enhancer (probability that activity matches class): ++ (5% ≤ ++ <25%)
  DP: anti-depressant (probability that activity matches class): ++ (5% ≤ ++ <25%)
  MS: mood stabilizer (probability that activity matches class): + (LOQ ≤ + <5%)
  PS: anti-psychotic (probability that activity matches class): ++ (5% ≤ ++ <25%)
  SD: sedative hypnotic (probability that activity matches class): + (LOQ ≤ + <5%)
  UN: uncharacterized CNS activity (probability that activity matches class): +++ (25% ≤ +++ <50%)

## NC[C@@H]1OCCc2c(-c3ccnnc3)cccc21 (single isomer, unassigned) [Compound 78, hydrochloride salt]
  minimal effective dose: 3 to 10 mg/kg
  AD: ADHD (probability that activity matches class): + (LOQ ≤ + <5%)
  AG: analgesic (probability that activity matches class): + (LOQ ≤ + <5%)
  AX: anxiolytic (probability that activity matches class): ++ (5% ≤ ++ <25%)
  CE: cognitive enhancer (probability that activity matches class): + (LOQ ≤ + <5%)
  DP: anti-depressant (probability that activity matches class): + (LOQ ≤ + <5%)
  MS: mood stabilizer (probability that activity matches class): + (LOQ ≤ + <5%)
  PS: anti-psychotic (probability that activity matches class): + (LOQ ≤ + <5%)
  SD: sedative hypnotic (probability that activity matches class): + (LOQ ≤ + <5%)
  UN: uncharacterized CNS activity (probability that activity matches class): + (LOQ ≤ + <5%)

## NC[C@@H]1OCCCc2c(-c3ccncc3)cccc21 (single isomer, unassigned) [Compound 150]
  minimal effective dose: 10 to 30 mg/kg
  AD: ADHD (probability that activity matches class): + (LOQ ≤ + <5%)
  AG: analgesic (probability that activity matches class): + (LOQ ≤ + <5%)
  AX: anxiolytic (probability that activity matches class): ++ (5% ≤ ++ <25%)
  CE: cognitive enhancer (probability that activity matches class): + (LOQ ≤ + <5%)
  DP: anti-depressant (probability that activity matches class): ++ (5% ≤ ++ <25%)
  MS: mood stabilizer (probability that activity matches class): + (LOQ ≤ + <5%)
  PS: anti-psychotic (probability that activity matches class): + (LOQ ≤ + <5%)
  SD: sedative hypnotic (probability that activity matches class): + (LOQ ≤ + <5%)
  UN: uncharacterized CNS activity (probability that activity matches class): + (LOQ ≤ + <5%)

## CNC[C@H]1OCCc2c(-c3cnco3)cccc21 (single isomer, unassigned) [Compound 97, hydrochloride salt]
  minimal effective dose: ≤ 3 mg/kg
  AD: ADHD (probability that activity matches class): + (LOQ ≤ + <5%)
  AG: analgesic (probability that activity matches class): ++ (5% ≤ ++ <25%)
  AX: anxiolytic (probability that activity matches class): ++ (5% ≤ ++ <25%)
  CE: cognitive enhancer (probability that activity matches class): + (LOQ ≤ + <5%)
  DP: anti-depressant (probability that activity matches class): ++ (5% ≤ ++ <25%)
  MS: mood stabilizer (probability that activity matches class): + (LOQ ≤ + <5%)
  PS: anti-psychotic (probability that activity matches class): ++ (5% ≤ ++ <25%)
  SD: sedative hypnotic (probability that activity matches class): ++++ (50% ≤ ++++)
  UN: uncharacterized CNS activity (probability that activity matches class): ++ (5% ≤ ++ <25%)

## CNC[C@@H]1OCCc2c(-c3cnccn3)cccc21 (single isomer, unassigned) [Compound 80]
  minimal effective dose: 3 to 10 mg/kg
  AD: ADHD (probability that activity matches class): + (LOQ ≤ + <5%)
  AG: analgesic (probability that activity matches class): + (LOQ ≤ + <5%)
  AX: anxiolytic (probability that activity matches class): ++ (5% ≤ ++ <25%)
  CE: cognitive enhancer (probability that activity matches class): + (LOQ ≤ + <5%)
  DP: anti-depressant (probability that activity matches class): + (LOQ ≤ + <5%)
  MS: mood stabilizer (probability that activity matches class): + (LOQ ≤ + <5%)
  PS: anti-psychotic (probability that activity matches class): + (LOQ ≤ + <5%)
  SD: sedative hypnotic (probability that activity matches class): + (LOQ ≤ + <5%)
  UN: uncharacterized CNS activity (probability that activity matches class): + (LOQ ≤ + <5%)

## NC[C@H]1OCCCc2c(-c3ccncc3)cccc21 (single isomer, unassigned) [Compound 151]
  minimal effective dose: 3 to 10 mg/kg
  AD: ADHD (probability that activity matches class): + (LOQ ≤ + <5%)
  AG: analgesic (probability that activity matches class): + (LOQ ≤ + <5%)
  AX: anxiolytic (probability that activity matches class): ++ (5% ≤ ++ <25%)
  CE: cognitive enhancer (probability that activity matches class): + (LOQ ≤ + <5%)
  DP: anti-depressant (probability that activity matches class): ++++ (50% ≤ ++++)
  MS: mood stabilizer (probability that activity matches class): + (LOQ ≤ + <5%)
  PS: anti-psychotic (probability that activity matches class): + (LOQ ≤ + <5%)
  SD: sedative hypnotic (probability that activity matches class): + (LOQ ≤ + <5%)
  UN: uncharacterized CNS activity (probability that activity matches class): + (LOQ ≤ + <5%)

## NC[C@@H]1OCc2c(-c3ccccn3)cccc21 (single isomer, unassigned) [Compound 41]
  minimal effective dose: 10 to 30 mg/kg
  AD: ADHD (probability that activity matches class): + (LOQ ≤ + <5%)
  AG: analgesic (probability that activity matches class): + (LOQ ≤ + <5%)
  AX: anxiolytic (probability that activity matches class): ++ (5% ≤ ++ <25%)
  CE: cognitive enhancer (probability that activity matches class): ++ (5% ≤ ++ <25%)
  DP: anti-depressant (probability that activity matches class): ++ (5% ≤ ++ <25%)
  MS: mood stabilizer (probability that activity matches class): + (LOQ ≤ + <5%)
  PS: anti-psychotic (probability that activity matches class): + (LOQ ≤ + <5%)
  SD: sedative hypnotic (probability that activity matches class): ++ (5% ≤ ++ <25%)
  UN: uncharacterized CNS activity (probability that activity matches class): ++++ (50% ≤ ++++)

## CNC[C@H]1OCCc2ccc(-c3cccnc3)cc21 [Compound 4, (S)-N-methyl-1-(7-(pyridin-3-yl)isochroman-1-yl)methanamine dihydrochloride]
  minimal effective dose: 3 to 10 mg/kg
  AD: ADHD (probability that activity matches class): + (LOQ ≤ + <5%)
  AG: analgesic (probability that activity matches class): + (LOQ ≤ + <5%)
  AX: anxiolytic (probability that activity matches class): ++ (5% ≤ ++ <25%)
  CE: cognitive enhancer (probability that activity matches class): + (LOQ ≤ + <5%)
  DP: anti-depressant (probability that activity matches class): ++ (5% ≤ ++ <25%)
  MS: mood stabilizer (probability that activity matches class): + (LOQ ≤ + <5%)
  PS: anti-psychotic (probability that activity matches class): +++ (25% ≤ +++ <50%)
  SD: sedative hypnotic (probability that activity matches class): + (LOQ ≤ + <5%)
  UN: uncharacterized CNS activity (probability that activity matches class): ++ (5% ≤ ++ <25%)
